Experiments:
Type in all cases: cell-based
[1] = tested on: PBMC-IFNa; assay: PBMC-IFNa; conditions: Table IIC; lowest effective concentration; read-out: PBMC-IFNa (LEC)
[2] = tested on: human TLR8; assay: TLR8 cellular NFκB-luc reporter assay in transiently transfected HEK293 cells; conditions: lowest effective concentration, 6 hours incubation
Description: (§1) The ability of compounds to activate human TLR7 and/or TLR8 was assessed in a cellular reporter assay using HEK293 cells transiently transfected with a TLR7 or TLR8 expression vector and NFκB-luc reporter construct. In one instance the TLR expression construct expresses the respective wild type sequence or a mutant sequence comprising a deletion in the second leucine-rich repeat of the TLR.
(§2) Briefly, HEK293 cells were grown in culture medium (DMEM supplemented with 10% FCS and 2 mM Glutamine). For transfection of cells in 10 cm dishes, cells were detached with Trypsin-EDTA, transfected with a mix of CMV-TLR7 or TLR8 plasmid (750 ng), NFκB-luc plasmid (375 ng) and a transfection reagent and incubated overnight at 37° C. in a humidified 5% CO2 atmosphere. Transfected cells were then detached with Trypsin-EDTA, washed in PBS and resuspended in medium to a density of 1.67×10^5 cells/mL. Thirty microliters of cells were then dispensed into each well in 384-well plates, where 10 μL of compound in 4% DMSO was already present. Following 6 hours incubation at 37° C., 5% CO2, the luciferase activity was determined by adding 15 μl of Steady Lite Plus substrate (Perkin Elmer) to each well and readout performed on a ViewLux ultraHTS microplate imager (Perkin Elmer). Dose response curves were generated from measurements performed in quadruplicates. Lowest effective concentrations (LEC) values, defined as the concentration that induces an effect which is at least two fold above the standard deviation of the assay, were determined for each compound.

[3] = tested on: human TLR7; assay: TLR7 cellular NFκB-luc reporter assay in transiently transfected HEK293 cells; conditions: lowest effective concentration, 6 hours incubation
Description: as §1, §2

Row | SMILES | minimal effective concentration [1] | Human TLR8 (LEC, μM) ([2]; Table IIC) | Human TLR7 (LEC, μM) ([3]; Table IIC) | Human TLR8 (LEC, μM) ([2]; Table II A) | Human TLR7 (LEC, μM) ([3]; Table II A) | Human TLR8 (LEC, μM) ([2]; Table II B) | Human TLR7 (LEC, μM) ([3]; Table II B)
1 | CCCCNc1nc(N)nc2c1CCN(C(=O)CC)C2 [Compound 30] | 0.5 µM | 0.5 µM | 5.0 µM | – | – | – | –
2 | CCCC[C@@H](CCO)Nc1nc(N)nc2c1CN(C(=O)c1csc(C)n1)CC2 [Compound 44] | 0.2 µM | 6.6 µM | 1.0 µM | – | – | – | –
3 | CCCCNc1nc(N)nc2c1CCN(C(=O)c1cccn1C)C2 [Compound 3] | – | – | – | 0.60 µM | 0.79 µM | – | –
4 | CCC[C@@H](CCO)Nc1nc(N)nc2c1CCN(C(=O)c1ccncc1)C2 [Compound 52] | – | 15 µM | 12.1 µM | – | – | – | –
5 | CCCCNc1nc(N)nc2c1CN(C(=O)Cc1cccs1)CC2 [Compound 6] | – | – | – | – | – | 0.88 µM | 3.45 µM
6 | CCCCNc1nc(N)nc2c1CN(C(=O)c1ccsc1)CC2 [Compound 33] | 0.2 µM | 0.2 µM | 0.3 µM | – | – | – | –
7 | CCC[C@@H](CCO)Nc1nc(N)nc2c1CCN(C(=O)c1cccn1C)C2 [Compound 49] | 0.3 µM | 4.0 µM | 2.7 µM | – | – | – | –
8 | CCC[C@@H](CCO)Nc1nc(N)nc2c1CN(C(=O)c1csc(C)n1)CC2 [Compound 42] | 0.2 µM | 2.1 µM | 2.2 µM | – | – | – | –
9 | CCCCNc1nc(N)nc2c1CCN(C(=O)c1ccsc1)C2 [Compound 21] | – | – | – | 1.85 µM | 8.13 µM | – | –
10 | CCCCNc1nc(N)nc2c1CCN(C(=O)C(C)C)C2 [Compound 13] | – | – | – | 0.85 µM | 3.21 µM | – | –
11 | CCCCNc1nc(N)nc2c1CCN(C(=O)c1ccccc1)C2 [Compound 2] | – | – | – | 0.75 µM | 3.96 µM | – | –
12 | CCCCNc1nc(N)nc2c1CN(C(=O)CC)CC2 [Compound 8] | – | – | – | – | – | 0.40 µM | 2.34 µM
13 | CCC[C@@H](CCO)Nc1nc(N)nc2c1CN(C(=O)c1ccco1)CC2 [Compound 41] | 0.1 µM | 0.4 µM | 0.4 µM | – | – | – | –
14 | CCCCNc1nc(N)nc2c1CN(C(=O)c1cocn1)CC2 [Compound 35] | 0.2 µM | 0.2 µM | 0.7 µM | – | – | – | –
15 | CCCC[C@@H](CCO)Nc1nc(N)nc2c1CN(C(=O)c1ccccc1)CC2 [Compound 48] | 0.3 µM | 3.9 µM | 1.2 µM | – | – | – | –
16 | CCCC[C@@H](CCO)Nc1nc(N)nc2c1CN(C(=O)c1cccs1)CC2 [Compound 45] | 0.2 µM | 1.7 µM | 0.2 µM | – | – | – | –
17 | CCCCNc1nc(N)nc2c1CCN(C(=O)CC(F)(F)F)C2 [Compound 24] | – | – | – | 2.29 µM | 12.93 µM | – | –
18 | CCCC[C@@H](CCO)Nc1nc(N)nc2c1CCN(C(=O)c1cccn1C)C2 [Compound 50] | 0.3 µM | 3.9 µM | 1.7 µM | – | – | – | –
19 | CCCCNc1nc(N)nc2c1CCN(C(=O)C1CC1)C2 [Compound 4] | – | – | – | 0.47 µM | 6.82 µM | – | –
20 | CCCCNc1nc(N)nc2c1CCN(C(=O)c1sccc1Cl)C2 [Compound 20] | – | – | – | 0.68 µM | 7.15 µM | – | –
21 | CCCC[C@@H](CCO)Nc1nc(N)nc2c1CN(C(=O)c1cccn1C)CC2 [Compound 51] | 0.1 µM | 0.4 µM | 0.5 µM | – | – | – | –
22 | CCCCNc1nc(N)nc2c1CCN(C(=O)c1cocn1)C2 [Compound 36] | 0.6 µM | 0.9 µM | 4.7 µM | – | – | – | –
23 | CCCCNc1nc(N)nc2c1CCN(C(=O)c1nccn1C)C2 [Compound 18] | – | – | – | 0.96 µM | 6.16 µM | – | –
24 | CCCC[C@@H](CCO)Nc1nc(N)nc2c1CN(C(=O)c1ccco1)CC2 [Compound 43] | 0.04 µM | 0.7 µM | 0.1 µM | – | – | – | –
25 | CCC[C@@H](CCO)Nc1nc(N)nc2c1CN(C(=O)c1cccs1)CC2 [Compound 47] | 0.2 µM | 1.1 µM | 0.2 µM | – | – | – | –
26 | CCCCNc1nc(N)nc2c1CCN(C(=O)c1ccccn1)C2 [Compound 19] | – | – | – | 0.83 µM | 6.59 µM | – | –
